Experimental data from article PMC12669040, “Tumour-specific STING agonist synthesis via a two-component prodrug system” (Nature Chemistry, 2025).
Values joined by “and” are separate entries in the source; they are usually repeats but may differ in a detail not shown here. Identical values can stand only once. Like-named read-outs stand apart in the source and are kept apart here.

What was measured:
[1] = target: T1, wild-type human STING LBD (hSTINGwt 138-379) (Homo sapiens, UniProt Q86WV6, H232R); experiment: Isothermal titration calorimetry (ITC), reverse titration; assay type: binding
T1 construct: SUMO (N, cleaved yes); made in house; host or cells: Escherichia coli BL21 (DE3)
T1 sequence (Q86WV6 138-379 H232R): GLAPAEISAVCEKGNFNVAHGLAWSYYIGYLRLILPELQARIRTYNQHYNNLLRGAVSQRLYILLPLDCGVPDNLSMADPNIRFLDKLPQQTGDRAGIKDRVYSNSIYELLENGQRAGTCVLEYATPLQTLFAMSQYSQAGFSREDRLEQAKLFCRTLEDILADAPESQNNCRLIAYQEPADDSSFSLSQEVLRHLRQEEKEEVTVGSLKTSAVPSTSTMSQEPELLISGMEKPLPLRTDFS
Protocol: Escherichia coli BL21 (DE3) (Thermo Scientific EC0114) was transformed with a pET28a plasmid (Genscript) harbouring the codon-optimized sequence of SUMO-hSTINGwt (aa138-379). Transformed BL21 cells were inoculated into LB medium (50 µg ml^−1 kanamycin) and incubated at 180 rpm, 37 °C overnight. The overnight culture was then diluted (1:100 dilution) in 2× YT medium (50 µg ml^−1 kanamycin) and incubated at 180 rpm, 37 °C until optical density at 600 nm (OD600) reached 0.6 (approximately 3 h). The bacterial culture was then cooled to 16 °C, induced with 0.5 mM isopropyl 1-thio-D-galactopyranoside and incubated overnight at 180 rpm, 16 °C. The bacterial cells were pelleted at 4,000g for 30 min, resuspended in 20 ml of lysis buffer (25 mM HEPES pH 7.5, 150 mM NaCl, 20 mM imidazole and 2 mM TCEP supplied with 2 tablets of cOmplete mini EDTA-free protease inhibitors) and disrupted by sonication on ice. The total lysate was clarified by centrifugation at 22,000g for 30 min. The supernatant was collected and filtered through a 0.45-µm filter (Millipore SLHAR33SS). The clarified lysate was then incubated on a roller with 10 ml bed volume of Ni-NTA resin (Thermo Scientific 88223) at 4 °C for 1 h. The Ni-NTA resin was then packed in a column, flushed with 20 ml of wash buffer (25 mM HEPES pH 7.5, 150 mM NaCl and 20 mM imidazole) and eluted with 40 ml of elution buffer (25 mM HEPES pH 8.0, 150 mM NaCl and 250 mM imidazole). The eluted protein was concentrated to approximately 5 ml (Millipore Amicon 10 kDa molecular weight cut-off (MWCO)) and buffer-exchanged into storage buffer (25 mM HEPES pH 7.5 and 150 mM NaCl). TCEP was then added to a final concentration of 2 mM, and 250 units of SUMO protease (Merck SAE0067) were added. The cleavage reaction mixture was left to stand at 4 °C overnight until LC–MS analysis indicated the completion of the cleavage reaction. The cleavage mixture was incubated with 10 ml bed volume of Ni-NTA resin on a roller at 4 °C for 1 h and packed in a disposable column. The flowthrough was collected, and the resin was further flushed with 20 ml of wash buffer. The eluted fractions were combined, concentrated and further purified by size-exclusion chromatography (Cytiva, Superdex 200 Increase 10/300 GL). The purified protein in storage buffer was concentrated to 330 µM (dimer concentration) as determined by bicinchoninic acid (BCA) assay, aliquoted, flash-frozen in liquid nitrogen and stored at −80 °C for future use.
The binding constants of purified dimers were measured by ITC (Malvern Panalytical AutoITC200) in a reverse-titration format. Stock DMSO solutions of each dimer were dissolved in titration buffer (25 mM HEPES pH 7.5 and 150 mM NaCl) to a final concentration of 25 µM and added to the titration cell. The syringe was filled with 250 µM of purified STING in a matching buffer. Titration was performed at 25 °C with the following parameters: 750 rpm stirring, 0.2 µl initial injection followed by 2-µl injections of the […] every 120 s. Titration of STING protein into blank buffer was separately performed and subtracted from the raw data before the analysis. The background-subtracted titration curves were fitted with the built-in Origin software using the standard one-site model.
Extended Data Fig. 2 Isothermal titration calorimetry (ITC) data for binding constant measurements. Purified hSTINGwt138-379 (250 μM of homodimer) was titrated into each dimer (25 μM) dissolved in a matching buffer (25 mM HEPES pH 7.5, 150 mM NaCl) at 25 °C and 750 rpm stirring. Binding constants were reported as the average from duplicate measurements.

[2] = tested on: THP-1 Lucia ISG cells (interferon pathway); experiment: Potency test of purified dimers on THP-1 Lucia ISG reporter cells; assay type: cell-based, human; settings: for Raw readings: replicates 1-3
Protocol: Cells were pelleted (150g, 10 min) and resuspended in the growth medium (40% conditioned) at a density of 1 × 10^6 cells ml^−1. The cell suspension was dispensed (50 µl each well) into a lidded white 96-well plate (BrandTech 781665). Test compounds or DMSO control were diluted in the growth medium and sterilized by filtering through 0.22-µm polyethersulfone (PES) membranes (Merck SLGP033RS). […] Upon cooling down to room temperature, 50 µl of reconstituted luciferase substrate (InvivoGen QUANTI-Luc) was added to each well via the injector of the plate reader (Molecular Devices SpectraMax i3x), and the luminescence output was recorded (4 s delay, 0.1 s integration). Raw signals were divided by the averaged signal of the DMSO-treated control wells and reported in relative luminescence unit (RLU). The dose–response curve of each replicate was fitted individually using the standard 4PL model (GraphPad Prism). The EC50 value of each compound was averaged from three independent experiments and reported as mean ± s.e.m.

[3] = tested on: THP-1 cells; experiment: Dilution limits of N1/E4 combination to activate THP-1 cells (IFN-β ELISA); settings: IFN-β secretion, 6 h, single component
[4] = substrate: COc1cc2sc(C(=O)CCC(=O)O)cc2cc1SCO[C@@H]1O[C@H](C(=O)O)[C@@H](O)[C@H](O)[C@H]1O; experiment: Michaelis–Menten kinetics of β-GlcA-N1 cleavage; assay type: biochemical, human; settings: other: 37 °C, 0.2 M sodium acetate pH 4.5, 67 nM enzyme
Protocol: Human β-glucuronidase (AcroBiosystems BEB-H52H3) was reconstituted in deionized water to a concentration of 1 mg ml^−1. The enzyme stock solution was further diluted in assay buffer (0.2 M acetate pH 4.5) to 10 μg ml^−1 (134 nM). β-GlcA-N1 (50 mM DMSO stock) was twofold serially diluted in assay buffer from 5 to 0.078 mM. The enzyme solution and diluted β-GlcA-N1 were incubated in a transparent 96-well plate and incubated at 37 °C until thermo equilibrium was reached. Then, 100 µl of β-GlcA-N1 at various concentrations was mixed with 100 µl of β-glucuronidase using a multichannel pipette, resulting in the following initial condition: [β-GlcA-N1] = 2.5, 1.25, 0.62, 0.31, 0.16, 0.08 and 0.04 mM; [β-glucuronidase] = 67 nM; 5% DMSO (v/v). The reactions were incubated at 37 °C. At 30-min and 60-min timepoints, a 50-µl portion was withdrawn from each reaction mixture and mixed with 50 µl of quenching buffer (1 M sodium carbonate, 1 mM TCEP). The concentration of liberated N1 was determined by comparing the absorbance of each quenched reaction at 410 nm to a calibration curve of purified N1. Reaction velocities were calculated from the slopes of [N1] versus time plots. The velocity versus [β-GlcA-N1] plot was then fitted with the standard Michaelis–Menten kinetic model (GraphPad Prism).

[5] = target: the molecule itself; experiment: crystal structure; STING LBD (247 µM) with compound D5 (2.2 mM), sitting drops, 20 °C; 2.31 Å

## COc1cc2sc(C(=O)CCC(=O)O)cc2cc1CSCc1cc2cc(C(=O)CCC(=O)O)sc2cc1OC [Compound D7]
[1]; 25 °C, average of duplicate measurements, read-out: Kd hSTINGwt (binding constant, ITC)
  Kd: 12 nM
[1]; ITC run _01, read-out: Kd
  Kd: 15 nM
[1]; ITC run _02, read-out: Kd
  Kd: 8 nM
[2]; Conc 0.508053 nM
  Raw readings: 1113 RLU and 627 RLU and 644 RLU
[2]; Conc 1.52416 nM
  Raw readings: 1094 RLU and 992 RLU and 1053 RLU
[2]; Conc 4.57247 nM
  Raw readings: 783 RLU and 1083 RLU and 911 RLU
[2]; Conc 13.7174 nM
  Raw readings: 1811 RLU and 3669 RLU and 2075 RLU
[2]; Conc 41.1523 nM
  Raw readings: 26401 RLU and 56159 RLU and 31852 RLU
[2]; Conc 123.457 nM
  Raw readings: 95964 RLU and 153788 RLU and 83328 RLU
[2]; Conc 370.37 nM
  Raw readings: 127337 RLU and 208679 RLU and 128863 RLU
[2]; Conc 1111.11 nM
  Raw readings: 148790 RLU and 255878 RLU and 161073 RLU
[2]; Conc 3333.33 nM
  Raw readings: 168239 RLU and 288236 RLU and 165803 RLU
[2]; Conc 10000 nM
  Raw readings: 170045 RLU and 271936 RLU and 154582 RLU
[2]; Homo sapiens, THP1-Lucia ISG, 24 h, Concentration 1.52416 nM, three replicates, read-out: Processed reporter response per replicate (reading relative to DMSO)
  fold induction at 0.00152416 µM: 1.5
[2]; Homo sapiens, THP1-Lucia ISG, 24 h, Concentration 4.57247 nM, three replicates, read-out: Processed reporter response per replicate (reading relative to DMSO)
  fold induction at 0.00457247 µM: 1.07
[2]; Homo sapiens, THP1-Lucia ISG, 24 h, Concentration 13.7174 nM, three replicates, read-out: Processed reporter response per replicate (reading relative to DMSO)
  fold induction at 0.0137174 µM: 2.48
[2]; Homo sapiens, THP1-Lucia ISG, 24 h, Concentration 41.1523 nM, three replicates, read-out: Processed reporter response per replicate (reading relative to DMSO)
  fold induction at 0.0411523 µM: 36.1
[2]; Homo sapiens, THP1-Lucia ISG, 24 h, Concentration 123.457 nM, three replicates, read-out: Processed reporter response per replicate (reading relative to DMSO)
  fold induction at 0.123457 µM: 131
[2]; Homo sapiens, THP1-Lucia ISG, 24 h, Concentration 370.37 nM, three replicates, read-out: Processed reporter response per replicate (reading relative to DMSO)
  fold induction at 0.37037 µM: 174
[2]; Homo sapiens, THP1-Lucia ISG, 24 h, Concentration 1111.11 nM, three replicates, read-out: Processed reporter response per replicate (reading relative to DMSO)
  fold induction at 1.11111 µM: 204
[2]; Homo sapiens, THP1-Lucia ISG, 24 h, Concentration 3333.33 nM, three replicates, read-out: Processed reporter response per replicate (reading relative to DMSO)
  fold induction at 3.33333 µM: 230
[2]; Homo sapiens, THP1-Lucia ISG, 24 h, Concentration 10000 nM, three replicates, read-out: Processed reporter response per replicate (reading relative to DMSO)
  fold induction at 10 µM: 233
[2]; Homo sapiens, THP1-Lucia ISG, 24 h, three biological replicates, mean ± s.d., read-out: EC50 THP-1
  EC50: 119 ± 2 nM

## COc1cc2sc(C(=O)CCC(=O)O)cc2cc1S [Compound N1]
[3]
  concentration up to which no STING activation was shown (alone): > 64 µM

B1: human β-glucuronidase (Homo sapiens) (protein)
chain: LQGGMLYPQESPSRECKELDGLWSFRADFSDNRRRGFEEQWYRRPLWESGPTVDMPVPSSFNDISQDWRLRHFVGWVWYEREVILPERWTQDLRTRVVLRIGSAHSYAIVWVNGVDTLEHEGGYLPFEADISNLVQVGPLPSRLRITIAINNTLTPTTLPPGTIQYLTDTSKYPKGYFVQNTYFDFFNYAGLQRSVLLYTTPTTYIDDITVTTSVEQDSGLVNYQISVKGSNLFKLEVRLLDAENKVVANGTGTQGQLKVPGVSLWWPYLMHERPAYLYSLEVQLTAQTSLGPVSDFYTLPVGIRTVAVTKSQFLINGKPFYFHGVNKHEDADIRGKGFDWPLLVKDFNLLRWLGANAFRTSHYPYAEEVMQMCDRYGIVVIDECPGVGLALPQFFNNVSLHHHMQVMEEVVRRDKNHPAVVMWSVANEPASHLESAGYYLKMVIAHTKSLDPSRPVTFVSNSNYAADKGAPYVDVICLNSYYSWYHDYGHLELIQLQLATQFENWYKKYQKPIIQSEYGAETIAGFHQDPPLMFTEEYQKSLLEQYHLGLDQKRRKYVVGELIWNFADFMTEQSPTRVLGNKKGIFTRQRQPKSAAFLLRERYWKIANETRYPHSVAKSQCLENSLFT
notes: purchased AcroBiosystems BEB-H52H3
[4]
  Km: 319 µM
  kcat: 0.48 s⁻¹
  kcat/Km: 1500 M⁻¹ s⁻¹

B2: R232-STING 138-379 (ligand-binding domain of human STING) (domain or fragment, UniProt Q86WV6 138-379, looked up)
chain: GLAPAEISAVCEKGNFNVAHGLAWSYYIGYLRLILPELQARIRTYNQHYNNLLRGAVSQRLYILLPLDCGVPDNLSMADPNIRFLDKLPQQTGDHAGIKDRVYSNSIYELLENGQRAGTCVLEYATPLQTLFAMSQYSQAGFSREDRLEQAKLFCRTLEDILADAPESQNNCRLIAYQEPADDSSFSLSQEVLRHLRQEEKEEVTVGSLKTSAVPSTSTMSQEPELLISGMEKPLPLRTDFS
notes: chains A and B form the dimer; also called STING LBD; hSTING LBD; source: E. coli BL21(DE3), purified (Ni-NTA, TEV cleavage, reverse Ni-NTA, gel filtration)
[5]
  binding result: binds
